Experimental data reported in US20250136576A1, “Heterocyclic Compounds and Uses Thereof” (ACEA Therapeutics, Inc., priority 2021, published 2025).

Test system: KM12-luc cells
Test: Cell proliferation and growth inhibition assay (CCK-8) in KM12-luc
Format: cell-based
Settings: KM12-Luc, 72 h, KM12-luc cells, treated with test compounds for 72 hrs, CCK-8 viability; read-out: NTRK IC50 in KM12-luc
Outline: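 Cells were grown at 37 °C, 5% CO2 with 10% FBS: MV-4-11 in IMDM, H1975 in RPMI 1640, KM12-luc in DMEM. Viability was read by CCK-8 (1-4 hrs reagent incubation, absorbance at OD450). IC50 came from a non-linear sigmoidal dose-response fit.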

Compound | IC50
CC(=O)Nc1cc(Nc2ncc(C(F)(F)F)c(-c3c[nH]c4ccccc34)n2)ccc1OCCN(C)C [Compound 304, N-(5-((4-(1H-indol-3-yl)-5-(trifluoromethyl)pyrimidin-2-yl)amino)-2-(2-(dimethylamino)ethoxy)phenyl)acetamide] | 75.1 nM
CN(C)CCN(C)c1ccc(Nc2ncc(C(F)(F)F)c(-c3cn(C)c4ccccc34)n2)cc1N [Compound 306, N^1-(2-(dimethylamino)ethyl)-N^1-methyl-N^4-(4-(1-methyl-1H-indol-3-yl)-5-(trifluoromethyl)pyrimidin-2-yl)benzene-1,2,4-triamine] | 56.1 nM
CC(=O)Nc1cc(Nc2ncc(C(F)(F)F)c(-c3cn(C)c4ccccc34)n2)cc(F)c1N(C)CCN(C)C [Compound 308, N-(2-((2-(dimethylamino)ethyl)(methyl)amino)-3-fluoro-5-((4-(1-methyl-1H-indol-3-yl)-5-(trifluoromethyl)pyrimidin-2-yl)amino)phenyl)acetamide] | 139 nM
CCN(CCN(C)C)c1ccc(Nc2ncc(C(F)(F)F)c(-c3cn(C)c4ccccc34)n2)cc1NC(C)=O [Compound 309, N-(2-((2-(dimethylamino)ethyl)(ethyl)amino)-5-((4-(1-methyl-1H-indol-3-yl)-5-(trifluoromethyl)pyrimidin-2-yl)amino)phenyl)acetamide] | 135 nM
CCN(CCN(C)C)c1ccc(Nc2ncc(C(F)(F)F)c(-c3cn(C)c4ccccc34)n2)cc1N [Compound 310, N^1-(2-(dimethylamino)ethyl)-N^1-ethyl-N^4-(4-(1-methyl-1H-indol-3-yl)-5-(trifluoromethyl)pyrimidin-2-yl)benzene-1,2,4-triamine] | 305 nM
CC(=O)Nc1cc(Nc2ncc(C(F)(F)F)c(-c3cn(C)c4ccccc34)n2)c(F)cc1N(C)CCN(C)C [Compound 313, N-(2-((2-(dimethylamino)ethyl)(methyl)amino)-4-fluoro-5-((4-(1-methyl-1H-indol-3-yl)-5-(trifluoromethyl)pyrimidin-2-yl)amino)phenyl)acetamide] | 308 nM
CC(=O)Nc1cc(Nc2ncc(C(F)(F)F)c(-c3cn(C)c4ccccc34)n2)ccc1N(CCN(C)C)C(C)=O [Compound 314a, N-(2-acetamido-4-((4-(1-methyl-1H-indol-3-yl)-5-(trifluoromethyl)pyrimidin-2-yl)amino)phenyl)-N-(2-(dimethylamino)ethyl)acetamide] | 63.2 nM
Cc1nc2cc(Nc3ncc(C(F)(F)F)c(-c4cn(C)c5ccccc45)n3)ccc2n1CCN(C)C [Compound 314b, 1-(2-(dimethylamino)ethyl)-2-methyl-N-(4-(1-methyl-1H-indol-3-yl)-5-(trifluoromethyl)pyrimidin-2-yl)-1H-benzo[d]imidazol-5-amine] | 139 nM
CC(=O)Nc1cc(Nc2ncc(C(F)(F)F)c(-c3cn(C)c4ccccc34)n2)ccc1OCCN(C)C [Compound 315, N-(2-(2-(dimethylamino)ethoxy)-5-((4-(1-methyl-1H-indol-3-yl)-5-(trifluoromethyl)pyrimidin-2-yl)amino)phenyl)acetamide] | 85.1 nM
CN(C)CCN(C)c1ccc(Nc2ncc(C(F)(F)F)c(-c3c[nH]c4cccc(F)c34)n2)cc1N [Compound 317, N^1-(2-(dimethylamino)ethyl)-N^4-(4-(4-fluoro-1H-indol-3-yl)-5-(trifluoromethyl)pyrimidin-2-yl)-N^1-methylbenzene-1,2,4-triamine] | 24.9 nM
CCN(CCN(C)C)c1ccc(Nc2ncc(C(F)(F)F)c(-c3c[nH]c4cccc(F)c34)n2)cc1NC(C)=O [Compound 318, N-(2-((2-(dimethylamino)ethyl)(ethyl)amino)-5-((4-(4-fluoro-1H-indol-3-yl)-5-(trifluoromethyl)pyrimidin-2-yl)amino)phenyl)acetamide] | 43.2 nM
CC(=O)Nc1cc(Nc2ncc(C(F)(F)F)c(-c3cn(C)c4cccc(F)c34)n2)ccc1N(C)CCN(C)C [Compound 320, N-(2-((2-(dimethylamino)ethyl)(methyl)amino)-5-((4-(4-fluoro-1-methyl-1H-indol-3-yl)-5-(trifluoromethyl)pyrimidin-2-yl)amino)phenyl)acetamide] | 91.1 nM
